Source: patent US20250249098A1, “CRYOPRESERVATION OF NK CELL PRODUCTS FOR OFF-THE-SHELF IMMUNOTHERAPY” (BOARD OF REGENTS, THE UNIVERSITY OF TEXAS SYSTEM, priority 2022, published 2025)

Experiments:
[1] = system: A375 cells and/or Saos-2 cells; experiment: xCELLigence impedance assay, thawed NYESO-TCR-NK cells; conditions: pre-cryopreservation treatment at 1 micromolar; E:T 2:1; vs no pre-treatment
Experimental: As shown in FIGS. 17A-17C, addition of various tyrosine kinase inhibitors prior to freezing enhanced the antitumor cytotoxicity of TCR-NK cells post-thaw against solid cancer, as determined by xCELLigence impedance assays. The melanoma cell line (A375) (FIG. 17A) and osteosarcoma cell line (Saos-2) (FIG. 17B), were grown in 96 well RTCA E-Plates overnight. The next day, frozen NYESO targeting TCR-NK cells that were not treated or were treated pre-cryopreservation with a tyrosine kinase inhibitor (Dasatinib, Bosutinib, Nilotinib, or Saracatinib; at a final concentration of 1 micromolar) were thawed and added at 2:1 effector to target (E:T) ratio. The cancer cell growth was measured continuously over time (X axis) by the xCELLigence device and represented as normalized cell index (Y axis).

[2] = system: CAR-NK cells; experiment: Post-thaw viability of CAR-NK cells by flow cytometry (Annexin V / cell death marker); assay type: cell-based, human
Experimental: (§1) CAR-NK cells were isolated, pre-activated, expanded, and treated with Dasatinib for 24, 48, or 72 hours prior to cryopreservation as described in Example 1 (or not treated with Dasatinib as control). Immediately prior to cryopreservation, CAR-NK cells were washed to remove the deactivating agent.

[3] = system: SKOV3 cells and/or UMRC3 cells; experiment: xCELLigence impedance assay, thawed iC9/CD27 CAR/IL-15-NK cells; assay type: cell-based; conditions: pre-cryopreservation treatment at 1 micromolar; E:T 2:1; vs no pre-treatment
Experimental: The ovarian cancer cell line (SKOV3) (FIG. 16A) and renal cell carcinoma cell line (UMRC3) (FIG. 16B), were grown in 96 well RTCA E-Plates overnight.

[4] = system: U266 cells; experiment: Chromium release assay, thawed NYESO-TCR-NK cells; assay type: cell-based; conditions: pre-cryopreservation treatment; E:T 2:1, 1:1, 0.5:1, 0.25:1; vs no pre-treatment
Experimental: After four hours, chromium release was measured, which corresponded to cancer cell death.

[5] = system: CAR-NK cells; experiment: Post-thaw CAR expression of CAR-NK cells by flow cytometry; assay type: cell-based, human
Experimental: as §1

[6] = 24 h treatment prior to cryopreservation
[7] = 48 h treatment prior to cryopreservation

| Compound | cytotoxicity of thawed TCR-NK cells (normalized cell index) [1] | living cell percentage [2, 6] | living cell percentage [2, 7] | living cell percentage ([2]; 72 h treatment prior to cryopreservation) | cytotoxicity of thawed CAR-NK cells (normalized cell index) [3] | cytotoxicity of thawed TCR-NK cells (chromium release after four hours) [4] | CAR Mean Fluorescence Intensity (MFI) [5, 6] | percentage of cells that are CAR positive [5, 6] | CAR Mean Fluorescence Intensity (MFI) [5, 7] | percentage of cells that are CAR positive [5, 7] |
| --- | --- | --- | --- | --- | --- | --- | --- | --- | --- | --- |
| COc1cc(Nc2c(C#N)cnc3cc(OCCCN4CCN(C)CC4)c(OC)cc23)c(Cl)cc1Cl [Bosutinib] | increased cytotoxicity | – | – | – | – | – | – | – | – | – |
| Cc1nc(Nc2ncc(C(=O)Nc3c(C)cccc3Cl)s2)cc(N2CCN(CCO)CC2)n1 [Dasatinib] | increased cytotoxicity | 61.7% | 68.8% | 70.9% | increased cytotoxicity | increased cytotoxicity | 7987 | 64.9% | 4620 | 55.4% |
| Cc1cn(-c2cc(NC(=O)c3ccc(C)c(Nc4nccc(-c5cccnc5)n4)c3)cc(C(F)(F)F)c2)cn1 [Nilotinib] | increased cytotoxicity | – | – | – | increased cytotoxicity | – | – | – | – | – |
| CN1CCN(CCOc2cc(OC3CCOCC3)c3c(Nc4c(Cl)ccc5c4OCO5)ncnc3c2)CC1 [Saracatinib] | – | – | – | – | increased cytotoxicity | – | – | – | – | – |
